Data as given in ChEMBL document CHEMBL3217712, “Improved biodistribution, pharmacokinetics and photodynamic efficacy using a new photostable sulfonamide bacteriochlorin” (Medchemcomm, 2012).

Legend:
[1] = n-Octanol-water partition coefficient, log P of the compound; type: physicochemical
[2] = tested on: S91; experiment: Photodynamic efficacy against mouse Cloudman S91 cells allografted in DBA mouse assessed as time of tumor growth delay at 2 mg/kg, iv followed by irradiated with 70 mW cm'-2 diode laser light for 25 mins; type: functional

logP [1]: -1.7
SMILES: O=S(=O)(O)c1ccc(Cl)c(-c2c3nc(c(-c4cc(S(=O)(=O)O)ccc4Cl)c4ccc([nH]4)c(-c4cc(S(=O)(=O)O)ccc4Cl)c4nc(c(-c5cc(S(=O)(=O)O)ccc5Cl)c5ccc2[nH]5)CC4)CC3)c1
Time [2]: 27 days
